# Reference: paper PMC9615537 (Journal of Pharmaceutical Analysis, 2022)
# Test: Metabolic identification of PEP06 in vitro, all matrices together
# Assay type: in vitro ADME
# Conditions: semi-quantitative, Table S3
sequence,measurement,value
RGDRGDMHSHRDFQPVLH [M6],Relative abundance of metabolite (peak area vs parent),most abundant metabolite
